Structures can show the parent of a compound that is named as a salt.
Target: T1, recombinant human 5-HT6 receptor (Homo sapiens, UniProt P50406)
T1 construct: expressed in transfected cells; cell membranes used
Assay: Radioligand binding: competition for [3H]LSD binding in membranes of HEK293 cells expressing the receptor
Settings: [3H]LSD (5 nM), HEK293 cell membranes, 60 min at 37° C., pH 7.4, duplicate determinations
Protocol: The binding activity of compounds of this invention in vitro was determined as follows. Duplicate determinations of ligand affinity are made by competing for binding of [^3H]LSD in cell membranes derived from HEK293 cells stably expressing recombinant human 5-HT6 receptor.
All determinations were made in assay buffer containing 50 mM Tris-HCl, 10 mM MgSO4, 0.5 mM EDTA, 1 mM ascorbic acid, pH 7.4 at 37° C., in a 250 microliter reaction volume. Assay tubes containing [^3H] LSD (5 nM), competing ligand, and membrane were incubated in a shaking water bath for 60 min. at 37° C., filtered onto Packard GF-B plates (presoaked with 0.3% PEI) using a Packard 96 well cell harvester and washed 3 times in ice cold 50 mM Tris-HCl. Bound [^3H] LSD was determined as radioactive counts per minute using Packard TopCount.
Displacement of [3H]LSD from the binding sites was quantified by fitting concentration-binding data to a 4-parameter logistic equation:
[formula] where Hill is the Hill slope, [ligand] is the concentration of competing radioligand and IC50 is the concentration of radioligand producing half-maximal specific binding of radioligand. The specific binding window is the difference between the Bmax and the basal parameters.

T1 sequence (P50406 whole entry): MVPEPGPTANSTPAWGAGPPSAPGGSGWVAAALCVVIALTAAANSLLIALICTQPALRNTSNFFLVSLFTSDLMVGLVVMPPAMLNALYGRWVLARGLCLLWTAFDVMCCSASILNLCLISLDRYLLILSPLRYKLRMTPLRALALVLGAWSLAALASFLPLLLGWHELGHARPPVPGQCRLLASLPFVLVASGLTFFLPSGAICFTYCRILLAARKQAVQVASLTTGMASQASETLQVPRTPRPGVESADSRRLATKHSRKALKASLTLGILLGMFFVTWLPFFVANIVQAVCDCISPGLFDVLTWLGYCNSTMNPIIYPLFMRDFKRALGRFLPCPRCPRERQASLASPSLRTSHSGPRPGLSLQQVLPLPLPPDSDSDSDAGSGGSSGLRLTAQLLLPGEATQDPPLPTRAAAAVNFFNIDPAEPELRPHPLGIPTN

SMILES	Ki
O=C1COc2c(N3CCNCC3)cc(F)cc2N1Cc1ccccc1F [4-(2-fluoro-benzyl)-6-fluoro-8-piperazin-1-yl-4H-benzo[1,4]oxazin-3-one]	676 pM
O=C1COc2c(N3CCNCC3)cccc2N1Cc1ccccc1F [4-(2-fluoro-benzyl)-8-piperazin-1-yl-4H-benzo[1,4]oxazin-3-one]	912 pM
CC1(C)Oc2c(N3CCNCC3)cccc2N(Cc2cccc(Cl)c2)C1=O [4-(3-Chloro-benzyl)-2,2-dimethyl-8-piperazin-1-yl-4H-benzo[1,4]oxazin-3-one]	759 pM
CC1(C)Oc2c(N3CCNCC3)cccc2N(Cc2ccccc2)C1=O [4-Benzyl-2,2-dimethyl-8-piperazin-1-yl-4H-benzo[1,4]oxazin-3-one]	741 pM
C[C@@H]1Oc2c(N3CCNCC3)cccc2N(Cc2ccccc2)C1=O [(S)-4-Benzyl-2-methyl-8-piperazin-1-yl-4H-benzo[1,4]oxazin-3-one]	759 pM

Tested on: not given
Assay: not given
Settings: not given

melting point	SMILES
55.2 to 58.8 °C	COc1cc(N2CCNCC2)c2c(c1)N(Cc1cccc(Cl)c1)C(=O)CO2 (as salt: hydrochloride)
250.9 to 253.8 °C	O=C1COc2c(N3CCNCC3)cccc2N1Cc1ccccc1 (as salt: hydrochloride)
